CCc1ccn(Cc2ccccc2O[C@@H]2O[C@H](CO)[C@@H](O)[C@H](O)[C@H]2O)c(=O)c1 [compound 1, 4-ethyl-1-[2-((2S,3R,4S,5S,6R)-3,4,5-trihydroxy-6-hydroxymethyltetrahydropyran-2-yloxy)benzyl]-1H-pyridin-2-one]
melting point: 174 °C

From patent publication US20070299065A1, “Tetrahydropyran Derivatives as Antidiabetics” (MERCK PATENT GMBH, priority 2004, published 2007)
